Laboratory results from patent publication US5140037A, “Treatment of central nervous system disorders with imidazole angiotensin-II receptor antagonists” (E. I. du Pont de Nemours and Company, priority 1990, dated 1992).
Entries after “also recorded” stand apart in the source; their conditions may differ.

What was measured:
[1] = system: AII-2 receptor subtype; assay: Block of AII receptor subtypes, AII-2 (statement in words); type: binding
[2] = molecular target: AII-1 receptor; assay: AII-1 site binding: displacement of [125I]AII in adrenal cortex microsomes in presence of 10^-5 M EXP655 (Table 1); parameters: species or system rat; conditions: 10^-5 M EXP655 present, [125I]AII displacement
[3] = system: AII-1 receptor subtype; assay: Block of AII receptor subtypes, AII-1 (statement in words); type: binding
[4] = molecular target: T1, AII-2 receptor (Rattus norvegicus, UniProt P35351); assay: biochemical
T1 sequence (P35351 1-363): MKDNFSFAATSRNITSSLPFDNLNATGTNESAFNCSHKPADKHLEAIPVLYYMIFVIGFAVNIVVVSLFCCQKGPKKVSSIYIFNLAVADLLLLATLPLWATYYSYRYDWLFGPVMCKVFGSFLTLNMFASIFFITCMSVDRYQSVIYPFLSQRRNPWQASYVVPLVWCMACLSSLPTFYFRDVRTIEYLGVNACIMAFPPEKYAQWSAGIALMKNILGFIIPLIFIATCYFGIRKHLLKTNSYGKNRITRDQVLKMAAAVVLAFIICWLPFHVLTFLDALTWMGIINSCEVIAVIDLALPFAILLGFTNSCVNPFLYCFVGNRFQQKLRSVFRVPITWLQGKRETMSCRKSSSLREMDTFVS
Description: IC50 was determined by displacement of [^125 I]AII from the receptor by the indicated compound.

[5] = system: renin-induced amnesia (passive avoidance); assay: Renin-disrupted passive avoidance retention; type: in vivo, male Sprague-Dawley rats; conditions: for effect on renin-induced amnesia: IVT, co-administered with renin
Description: RENIN-DISRUPTED PASSIVE AVOIDANCE RETENTION
Experimentally naive male Sprague-Dawley rats 100 to 125 days oil (Charles River Breeding Laboratories, Kingston, N.Y.), weighing between 175 to 200 gm were used. The animals were housed four per cage (45.0L×20.0H×26.0W cm) with free access to food and water. They were maintained on a 12 h light/dark cycle (lights on 0600 h) and at a room temperature of 22±1° C. with relative humidity of 50±10%.
The experimental sessions were conducted in a two-compartment passive avoidance box. One compartment, made of clear plastic with a perforated clear plastic floor, measured 21(L)×24.5(H)×17(W) cm and was illuminated with a 60 watt incandescent light bulb placed 36 cm above the floor. The other compartment, made of black plastic, measured 30.5 (L)×20.3 (H)×21.5 (W) cm with a floor made of 4 mm stainless steel rods spaced 1.2 cm apart. A grid floor shocker (Coulbourn Instruments) was connected to the steel rods and provided scrambled footshock. The two compartments were separated by a solenoid-operated slide door (Lafayette Instrument Co., Lafayette, Ind.). An electronic counter (Coulbourn Instruments), triggered by the opening or closing of the slide door, recorded acquisition and retention latencies (latencies were defined as the time it took an animal to enter the dark compartment).
Passive avoidance training began by placing the rat into the clear compartment of the two-compartment passive avoidance box. Following a 10 sec delay, the slide door to the dark compartment was raised. Once the rat moved completely into the dark compartment (all four paws on the shock grid floor) the slide door was lowered, and after a 10 sec. delay, a 1.0 mA shock was applied to the grid floor for three sec. A second three s shock was delivered after an additional 10 sec delay. The rats were immediately removed from the dark compartment and returned to their home cage. A retention test was given 24 h later. It proceeded in the same manner as the training session except that no shock was applied to the grid floor when the rats were provided access to the dark compartment for a maximum of 300 sec.
All drugs were administered IVT 60 minutes prior to acquisition training in a volume of 5 μl. Doses are expressed as the free base weight of each compound.

[6] = system: AII binding sites in the brain; assay: Binding of AII antagonists to sections of brain slices
[7] = system: ACh in the striatum and hypothalamus; conditions: acute or repeated administration; cited from earlier work
[8] = system: scopolamine-induced impairment of eight arm radial maze performance; conditions: 3 mg/kg IP; cited from earlier work
[9] = system: scopolamine-induced amnesia; conditions: three times per day, 1, 3 and 10 mg/kg PO; cited from earlier work
[10] = system: uphill avoidance; conditions: acute, 30 mg/kg PO; cited from earlier work
[11] = system: memory of previously learned tasks; conditions: in vivo; cited from earlier work
[12] = system: avoidance learning; conditions: cited from earlier work
[13] = system: light/dark habituation; conditions: cited from earlier work
[14] = system: passive avoidance response; conditions: injected into dorsal neostriatum; cited from earlier work
[15] = system: potassium-stimulated release of [3H]ACh; conditions: rat entorhinal cortex, cited from earlier work
[16] = system: AII in cerebrospinal fluid (CSF); conditions: cited from earlier work

**Q.** Which results are given for `CCCc1nc(-c2ccccc2)c(C=O)n1Cc1ccc(-c2ccccc2-c2nnn[nH]2)cc1` [Compound A, 1-[(2'-(1H tetrazol-5-yl)biphenyl-4-yl)methyl]-4-phenyl-2-propylimidazole-5-carboxaldehyde]?
**A.** AII-2 receptor block / affinity [1]: show affinity for both AII-1 and AII-2 receptors; IC50 [2]: 22 nM; AII-1 receptor block / affinity [3]: show affinity for both AII-1 and AII-2 receptors; IC50 [4]: 2400 nM

**Q.** For `CCCc1nc(-c2ccccc2)c(C=O)n1Cc1ccc(-c2ccccc2C(=O)O)cc1` [Compound B, 1-[(2'-carboxybiphenyl-4-yl)methyl]-4-phenyl-2-propylimidazole-5-carboxaldehyde], which “AII-2 receptor block / affinity” value [1] is on record?
**A.** show affinity for both AII-1 and AII-2 receptors

**Q.** And the IC50 [2]?
**A.** 290 nM

**Q.** And the “AII-1 receptor block / affinity” value [3]?
**A.** show affinity for both AII-1 and AII-2 receptors

**Q.** What about the IC50 [4] of the same molecule?
**A.** 4300 nM

**Q.** Which “AII-1 receptor block / affinity” value [3] does the source give for `CCCc1nc(C(F)(F)F)c(C(=O)O)n1Cc1ccc(-c2ccccc2-c2nnn[nH]2)cc1` [Compound C, 2-n-propyl-1-[(2'-(1H -tetrazol-5-yl)biphenyl-4-yl)methyl]-4-trifluoromethylimidazole-5-carboxylic acid] here?
**A.** AII-1 receptor antagonists

**Q.** What about the “effect on renin-induced amnesia” value [5] of the same molecule?
**A.** protected against the amnesia

**Q.** What does the source list for `CCCc1nc(C(F)(F)F)c(CO)n1Cc1ccc(-c2ccccc2-c2nnn[nH]2)cc1` [Compound D, 2-n-propyl-5-hydroxymethyl-1-[(2'-(1H-tetrazol-5-yl)biphenyl-4-yl)methyl]-4-trifluoromethylimidazole]?
**A.** AII-1 receptor block / affinity [3]: AII-1 receptor antagonists; effect on renin-induced amnesia [5]: protected against the amnesia

**Q.** For `Cc1cc(Cn2cnc3c2CC(C(=O)O)N(C(=O)C(c2ccccc2)c2ccccc2)C3)ccc1N` (stereo not drawn) [EXP655, 1-(4-amino-3-methylphenyl)methyl-5-diphenylacetyl-4,5,6,7-tetrahydro-1H-imidazo[4,5-c]pyridine-6-carboxylic acid], which “sensitivity of AII binding sites in the brain” value [6] is on record?
**A.** the majority of binding sites in the brain are DTT-insensitive and EXP655-sensitive

**Q.** What about the IC50 [2] of the same molecule?
**A.** 300000 nM

**Q.** What about the “effect on renin-induced amnesia” value [5] of the same molecule?
**A.** much less effective in preventing the amnesia

**Q.** Which “ACh in the striatum and hypothalamus” value [7] does the source give for `CCOC(=O)C(CCc1ccccc1)NC(C)C(=O)N1CC2(CC3CCC2CC3)CC1C(=O)O` (stereo not drawn) [Hoe 288] here?
**A.** significant decrease in ACh in the striatum and hypothalamus

**Q.** And the “effects of muscarinic receptor blockade on radial maze performance” value [8]?
**A.** partially antagonized the effects of muscarinic receptor blockade

**Q.** What about the “scopolamine-induced PA amnesia” value [9] of the same molecule?
**A.** partially reversed the amnesia

**Q.** What about the “uphill avoidance performance during retention testing” value [10] of the same molecule?
**A.** improved performance during retention testing

**Q.** For `NCCCC[C@H](OP(=O)(O)CCCCc1ccccc1)C(=O)N1CCC[C@H]1C(=O)O` [SQ 29852], which “anticholinergic effect on performance” value [11] is on record?
**A.** ameliorate, at least in part, an anticholinergic effect on performance

**Q.** And the “effects on memory of previously learned tasks” value [11]?
**A.** protective effects on memory of previously learned tasks

**Q.** With `CNCC(=O)N[C@@H](CCCN=C(N)N)C(=O)N[C@H](C(=O)N[C@@H](Cc1ccc(O)cc1)C(=O)N[C@H](C(=O)N[C@@H](Cc1cnc[nH]1)C(=O)N1CCC[C@H]1C(=O)N[C@@H](C)C(=O)O)C(C)C)C(C)C` [Saralasin] as the molecule, how does the IC50 [2] read?
**A.** 0.7 nM

**Q.** What about the IC50 [4] of the same molecule?
**A.** 0.3 nM

**Q.** Which renin-induced avoidance disruption ([12]; captopril IVT prior to renin) does the source give for `C[C@H](CS)C(=O)N1CCC[C@H]1C(=O)O` [captopril] here?
**A.** prevented the renin-induced avoidance disruption

**Q.** And the “scopolamine-induced disruption of light/dark habituation performance” value ([13]; daily treatment)?
**A.** prevented

**Q.** And the “rate of acquisition of light/dark habituation performance” value ([13]; subchronic treatment)?
**A.** increased the rate of acquisition of light/dark habituation performance

**Q.** What about the “effect of captopril on renin-induced amnesia” value ([5]; IVT captopril, applicant's laboratory) of the same molecule?
**A.** renin-induced amnesia can be prevented

**Q.** For `NC(=O)[C@@H]1CCCN1C(=O)[C@H](Cc1cnc[nH]1)NC(=O)[C@@H]1CCC(=O)N1` [thyrotropin releasing hormone], which “retention of passive avoidance response” value [14] is on record?
**A.** no effect

**Q.** For “AII: Angiotensin II (AII), a circulating hormone, now thought to act as a neuropeptide in the central nervous system (DRVYIHPF; Angiotensin-2; UniProt P01019 25-32, looked up)”, which IC50 [2] is on record?
**A.** 1.5 nM

**Q.** And the “basal ACh levels” value [15]?
**A.** without effects on basal levels

**Q.** And the “potassium-stimulated release of ACh” value [15]?
**A.** reduced potassium-stimulated release of ACh

**Q.** And the “retention of passive avoidance response” value [14]?
**A.** showed a disruption in retention of a PA response

**Q.** Which “antagonism of AII effect on ACh release” value ([15]; with AII) does the source give for “[1-sarcosine, 8-threonine]angiotensin II” here?
**A.** antagonized

**Q.** Which “retention of passive avoidance response” value [14] does the source give for lysine-8-vasopressin here?
**A.** no effect

B1: renin: Renin (Sigma Chemicals), a stimulator of endogenous AII biosynthesis (protein, UniProt P00797 67-406, looked up)
Renin: LTLGNTTSSVILTNYMDTQYYGEIGIGTPPQTFKVVFDTGSSNVWVPSSKCSRLYTACVYHKLFDASDSSSYKHNGTELTLRYSTGTVSGFLSQDIITVGGITVTQMFGEVTEMPALPFMLAEFDGVVGMGFIEQAIGRVTPIFDNIISQGVLKEDVFSFYYNRDSENSQSLGGQIVLGGSDPQHYEGNFHYINLIKTGVWQIQMKGVSVGSSTLLCEDGCLALVDTGASYISGSTSSIEKLMEALGAKKRLFDYVVKCNEGPTLPDISFHLGGKEYTLTSADYVFQESYSSKKLCTLAIHAMDIPPPTGPTWALGATFIRKFYTEFDRRNNRIGFALAR
**Q.** Which avoidance learning ([12]; renin IVT) does the source give for B1 here?
**A.** disruption of avoidance learning

**Q.** And the “AII in CSF after renin” value ([16]; renin IVT)?
**A.** about 5,000 fmol per mL

**Q.** What about the “AII in CSF before renin” value ([16]; starting level) of the same molecule?
**A.** 40 fmol per mL

**Q.** And the “memory effect of renin” value ([5]; renin IVT)?
**A.** produces a reliable memory deficit; also recorded: produces a dose-related amnesia in a PA task

**Q.** What about the “Median Retention Latency” value ([5]; renin alone 5.0 μg/5 μL IVT) of the same molecule?
**A.** 17 s
